Data published in ChEMBL document CHEMBL3885881, “DrugMatrix”.

Organism: Rattus norvegicus
Format: toxicity, organism-based, Sprague-Dawley
Details: in vivo, ip, 24 h, route intraperitoneal, time 1 day, vehicle .1 % RSA/SALINE
[1] = 0 mg/kg, vehicle control, tissue Blood, dose level Control
[2] = 0 mg/kg, vehicle control, tissue Plasma, dose level Control
[3] = 0.01 mg/kg, tissue Blood, dose level High
[4] = 0.01 mg/kg, tissue Plasma, dose level High

Description: DrugMatrix - Regimen: Single

Sequence: INTERLEUKIN 1 BETA, RAT
- ABSOLUTE EOSINOPHIL [1]: 109.33 CELLS/uL
- ABSOLUTE LYMPHOCYTE [1]: 13180.67 CELLS/uL
- ABSOLUTE MONOCYTE [1]: 354 CELLS/uL
- ABSOLUTE SEGMENTED NEUTROPHIL [1]: 1756 CELLS/uL
- BASOPHIL [1]: 0%
- EOSINOPHIL [1]: 0.67%
- ERYTHROCYTE COUNT [1]: 5.38 x10E6/uL
- HEMOGLOBIN [1]: 12.57 G/DL
- LEUKOCYTE COUNT [1]: 15.4 x10E3/uL
- LYMPHOCYTE [1]: 85%
- MEAN CORPUSCULAR HEMOGLOBIN [1]: 23.37 pg
- MEAN CORPUSCULAR HEMOGLOBIN CONCENTRATION [1]: 38.3 G/DL
- NEUTROPHIL [1]: 12%
- NUCLEATED RED BLOOD CELLS [1]: 0 /100WBC
- PLATELET COUNT [1]: 832.33 x10E3/uL
- ALANINE AMINOTRANSFERASE [2]: 37.33 u/L
- ALBUMIN [2]: 4 G/DL
- ALKALINE PHOSPHATASE [2]: 344.67 u/L
- ASPARTATE AMINOTRANSFERASE [2]: 69.33 u/L
- BLOOD UREA NITROGEN [2]: 13.67 mg/dL
- CARBON DIOXIDE [2]: 28.33 mmol/L
- CHLORIDE [2]: 99.67 MEQ/L
- CHOLESTEROL [2]: 73.67 mg/dL
- CREATINE PHOSPHOKINASE [2]: 270 u/L
- CREATININE [2]: 0.19 mg/dL
- GLUCOSE [2]: 176.33 mg/dL
- LACTATE DEHYDROGENASE [2]: 160 u/L
- PHOSPHORUS [2]: 13.47 mg/dL
- POTASSIUM [2]: 6.77 MEQ/L
- TOTAL BILIRUBIN [2]: 0.13 mg/dL
- TOTAL PROTEIN [2]: 6.07 G/DL
- URIC ACID [2]: 1.87 mg/dL
- ABSOLUTE EOSINOPHIL [3]: 0 CELLS/uL
- ABSOLUTE LYMPHOCYTE [3]: 13348 CELLS/uL
- ABSOLUTE MONOCYTE [3]: 227.67 CELLS/uL
- ABSOLUTE SEGMENTED NEUTROPHIL [3]: 3524.33 CELLS/uL
- BASOPHIL [3]: 0%
- EOSINOPHIL [3]: 0%
- ERYTHROCYTE COUNT [3]: 5.11 x10E6/uL
- HEMATOCRIT [3]: 31.33%
- HEMOGLOBIN [3]: 12.13 G/DL
- LEUKOCYTE COUNT [3]: 17.1 x10E3/uL
- LYMPHOCYTE [3]: 78%
- MEAN CORPUSCULAR HEMOGLOBIN CONCENTRATION [3]: 38.73 G/DL
- MEAN CORPUSCULAR VOLUME [3]: 61.37 fL
- NEUTROPHIL [3]: 20.67%
- NUCLEATED RED BLOOD CELLS [3]: 0.33 /100WBC
- PLATELET COUNT [3]: 933.33 x10E3/uL
- ALANINE AMINOTRANSFERASE [4]: 30.33 u/L
- ALKALINE PHOSPHATASE [4]: 386.33 u/L
- ASPARTATE AMINOTRANSFERASE [4]: 62.67 u/L
- CARBON DIOXIDE [4]: 25.33 mmol/L
- CHOLESTEROL [4]: 66.67 mg/dL
- CREATINE PHOSPHOKINASE [4]: 237 u/L
- CREATININE [4]: 0.18 mg/dL
- GLUCOSE [4]: 176.33 mg/dL
- LACTATE DEHYDROGENASE [4]: 101 u/L
- PHOSPHORUS [4]: 12.13 mg/dL
- POTASSIUM [4]: 6.6 MEQ/L
- TOTAL BILIRUBIN [4]: 0.13 mg/dL
- TOTAL PROTEIN [4]: 6.07 G/DL
